Experimental data published in patent US20070161655A1, “Fungicidal mixtures” (BASF Aktiengesellschaft, priority 2004, published 2007).

Tested on: Corticium sasakii
Test: Activity against sheath blight on rice caused by Corticium sasakii (protective spray, rice plants cultivar Tai-Nong 67)
Assay type: in vivo
Details: individual active compound, evaluated after 11 days, untreated control 85% infection
Protocol: The active compounds, separately or jointly, were prepared as a stock solution comprising 0.25% by weight of active compound in acetone or DMSO. 1% by weight of the emulsifier Uniperol® EL (wetting agent having emulsifying and dispersing action based on ethoxylated alkylphenols) was added to this solution, and the mixture was appropriately diluted with water to the desired concentration.
Pots of rice plants of the cultivar “Tai-Nong 67” were sprayed to runoff point with an aqueous suspension having the concentration of active compound stated below. The next day, oat grains infected with Corticium sasakii were planted in the pots (in each case 5 grains per pot). The plants were then placed in a chamber at 26° C. and maximum atmospheric humidity. After 11 days, the sheath blight on the untreated but infected control plants had developed to such an extent that the infection could be determined visually in %.
Evaluation is carried out by determining the infected leaf areas in percent. These percentages were converted into efficacies.
The efficacy (E) is calculated as follows using Abbot's formula: E=(1−α/β)·100 • α corresponds to the fungal infection of the treated plants in % and • β corresponds to the fungal infection of the untreated (control) plants in %
An efficacy of 0 means that the infection level of the treated plants corresponds to that of the untreated control plants; an efficacy of 100 means that the treated plants are not infected.
The expected efficacies of the mixtures of active compounds are determined using Colby's formula [R. S. Colby, Weeds, 15, 20-22 (1967)] and are compared with the observed efficacies.
Colby's formula: E=x+y−x·y/100 • expected efficacy, expressed in % of the untreated control, when using the mixture of the active compounds A and B at the concentrations a and b • x efficacy, expressed in % of the untreated control, when using the active compound A at the concentration a
y efficacy, expressed in % of the untreated control, when using the active compound B at the concentration b

Row | Compound | Efficacy in % of the untreated control (4 ppm in the spray liquor) | Efficacy in % of the untreated control (16 ppm in the spray liquor)
1 | CC1CCN(c2c(-c3c(F)cc(F)cc3F)c(Cl)nc3ncnn23)CC1 [I, 5-chloro-7-(4-methylpiperidin-1-yl)-6-(2,4,6-trifluorophenyl)-[1,2,4]triazolo[1,5-a]pyrimidine] | 30% | 65%
2 | CN(C)S(=O)(=O)N(SC(F)(Cl)Cl)c1ccccc1 [II (dichlofluanid), N-dichlorofluoromethylthio-N′,N′-dimethyl-N-phenylsulfonamide] | 0% | 0%
